Structures can show the parent of a compound that is named as a salt.
target: T1, human calcium receptor (Homo sapiens, UniProt P41180); experiment: Calcium Receptor Inhibitor Assay; assay type: cell-based; conditions: not given
T1 construct: expressed in transfected cells
T1 sequence (P41180 20-1078): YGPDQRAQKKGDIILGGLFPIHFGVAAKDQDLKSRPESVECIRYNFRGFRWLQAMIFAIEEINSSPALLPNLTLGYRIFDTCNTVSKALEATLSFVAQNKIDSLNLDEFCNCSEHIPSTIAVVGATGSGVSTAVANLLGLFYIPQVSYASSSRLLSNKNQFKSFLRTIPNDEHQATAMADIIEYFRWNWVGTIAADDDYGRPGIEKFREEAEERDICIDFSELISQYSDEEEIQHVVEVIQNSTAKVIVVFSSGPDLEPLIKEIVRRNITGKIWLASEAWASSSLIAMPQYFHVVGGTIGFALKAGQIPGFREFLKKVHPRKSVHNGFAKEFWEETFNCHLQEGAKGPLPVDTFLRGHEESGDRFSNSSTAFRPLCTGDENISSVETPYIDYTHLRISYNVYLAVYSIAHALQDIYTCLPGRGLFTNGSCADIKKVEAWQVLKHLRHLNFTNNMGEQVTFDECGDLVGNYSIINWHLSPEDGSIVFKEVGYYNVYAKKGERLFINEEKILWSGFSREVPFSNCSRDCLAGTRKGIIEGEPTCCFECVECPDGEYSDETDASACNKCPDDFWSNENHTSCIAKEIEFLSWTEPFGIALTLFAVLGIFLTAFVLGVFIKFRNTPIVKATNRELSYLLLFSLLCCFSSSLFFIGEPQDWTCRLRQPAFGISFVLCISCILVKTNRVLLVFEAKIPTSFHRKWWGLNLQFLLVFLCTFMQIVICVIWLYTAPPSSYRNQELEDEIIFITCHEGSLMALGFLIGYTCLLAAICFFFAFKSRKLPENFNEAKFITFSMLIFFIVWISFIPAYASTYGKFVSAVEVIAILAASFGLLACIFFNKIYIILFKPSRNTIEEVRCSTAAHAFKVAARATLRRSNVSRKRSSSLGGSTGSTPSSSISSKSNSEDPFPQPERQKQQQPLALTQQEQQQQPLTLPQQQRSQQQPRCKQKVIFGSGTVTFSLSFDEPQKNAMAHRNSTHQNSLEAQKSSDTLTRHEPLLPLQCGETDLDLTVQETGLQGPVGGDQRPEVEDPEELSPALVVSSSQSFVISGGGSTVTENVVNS
Description: This example illustrates the use of the Calcium Receptor Inhibitor Assay. […] Res. 10 Suppl. […] Intracellular Ca^2+ was measured using fluo-3, a fluorescent calcium indicator.
The procedure was as follows:
1. Cells were maintained in T-150 flasks in selection media (DMEM supplemented with 10% fetal bovine serum and 200 μg/mL hygromycin B), under 5% CO2:95% air at 37° C. and were grown up to 90% confluency.
2. The medium was decanted and the cell monolayer was washed twice with phosphate-buffered saline (PBS) kept at 37° C. After the second wash, 6 mL of 0.02% EDTA in PBS was added and incubated for 4 minutes at 37° C. Following the incubation, cells were dispersed by gentle agitation.
3. Cells from 2 or 3 flasks were pooled and pelleted (100×g). The cellular pellet was resuspended in […] of SPF-PCB+ and pelleted again by centrifugation. This washing was done twice.
SPF-PCB was made up and stored at 4° C. On the day of use, SPF-PCB was supplemented with 1 mg/mL of D-glucose and 1 mM CaCl2 and then split into two fractions. To one fraction, bovine serum albumin (BSA; fraction V, ICN) was added at 5 mg/mL (SPF-PCB+). This buffer was used for washing, loading and maintaining the cells. The BSA-free fraction was used for diluting the cells in the cuvette for measurements of fluorescence.
5. Following the incubation period, the cells were pelleted by centrifugation. The resulting pellet was washed with SPF-PCB+. After this washing, cells were resuspended in SPF-PCB+ at a density of 1–2×10^6 cells/mL.
6. For recording fluorescent signals, 300 μL of cell suspension were diluted in 1.2 mL of SPF buffer containing 1 mM CaCl2 and 1 mg/mL of D-glucose. Measurements of fluorescence were performed at 37° C. with constant stirring using a spectrofluorimeter. […] To calibrate fluorescence signals, digitonin (5 mg/mL in ethanol) was added to obtain Fmax, and the apparent Fmin was determined by adding Tris-EGTA (2.5 M Tris-Base, 0.3 M EGTA).
7. To determine the potential calcilytic activity of test compounds, cells were incubated with test compound (or vehicle as a control) for 90 seconds before increasing the concentration of extracellular Ca^2+ from 1 to 2 mM. Calcilytic compounds were detected by their ability to block, in a concentration-dependent manner, increases in the concentration of intracellular Ca^2+ elicited by extracellular Ca^2+.

Row | SMILES | IC50
1 | COc1ccc(CC(C)(C)NCCc2ccccc2)cc1 [Compound 84, N-(2-Phenylethyl)-1,1-dimethyl-2-(4-methoxyphenyl)ethylamine] | > 50 µM
2 | COc1ccc(CC(C)(C)NCC(O)COC2CCCCC2)cc1 (stereo not shown) [Compound 93, N-(2-hydroxy-3-cyclohexoxypropyl)-1,1-dimethyl-2-(4-methoxyphenyl)ethylamine] | < 10 µM
3 | COc1ccc(CC(C)(C)NCC(O)CCCCCCCCO)cc1 (stereo not shown) [Compound 123, N-(2,10-Dihydroxydecyl)-1,1-dimethyl-2-(4-methoxyphenyl)ethylamine Hydrochloride] | < 10 µM
4 | COc1ccc(CC(C)(C)NCC(O)Cc2ccc3c(c2)OCO3)cc1 (stereo not shown) [Compound 124, N-[2-hydroxy-3-(3,4-methylene-dioxyphenyl)propyl]-1,1-dimethyl-2-(4-methoxyphenyl)ethylamine Hydrochloride] | < 10 µM

same assay, conditions: HEK 293 4.0–7 cells stably expressing the human calcium receptor; fluo-3; read-out: IC50 for blocking increases of intracellular Ca2+ elicited by extracellular Ca2+

Row | SMILES | IC50
5 | COc1ccc(CCC(C)(C)NCC(O)COc2ccccc2)cc1 (stereo not shown) [Compound 90, N-(2-Hydroxy-3-phenoxypropyl)-1,1-dimethyl-3-(4-methoxyphenyl)propylamine Hydrochloride] | < 50 µM
6 | CC(C)(Cc1cccc2ccccc12)NCC(O)COc1ccccc1 (stereo not shown) [Compound 92, N-(2-hydroxy-3-phenoxypropyl)-1,1-dimethyl-2-(1-naphthyl)ethylamine] | > 50 µM
7 | COc1ccc(CC(C)(C)NCC(O)COC23CC4CC(CC(C4)C2)C3)cc1 (stereo not shown) [Compound 96, N-[2-Hydroxy-3-(1-adamantanoxy)propyl]-1-1,1-dimethyl-2-(4-methoxyphenyl)ethyl amine] | < 1 µM
8 | Cc1ccc(CC(C)(C)NCC(O)COc2ccccc2)cc1 (stereo not shown) [Compound 98, N-(2-Hydroxy-3-phenoxypropyl)-1,1-dimethyl-2-(4-methylphenyl)ethylamine Hydrochloride] | < 10 µM
9 | COc1cccc(CC(C)(C)NCC(O)COc2ccccc2)c1 (stereo not shown) [Compound 99, N-(2-Hydroxy-3-phenoxypropyl)-1,1-dimethyl-2-(3-methoxyphenyl)ethylamine Hydrochloride] | > 50 µM
10 | COc1ccc(CC(C)(C)NCC(C)(O)COc2ccccc2)cc1 (stereo not shown) [Compound 101, N-(2-Hydroxy-2-methyl-3-phenoxypropyl)-1,1-dimethyl-2-(4-methoxyphenyl)ethylamine Hydrochloride] | < 50 µM
11 | CCOc1ccc(CC(C)(C)NCC(O)COc2ccccc2)cc1 (stereo not shown) [Compound 102, N-(2-hydroxy-3-phenoxypropyl)-1,1-dimethyl-2-(4-ethoxyphenyl)ethylamine] | > 50 µM
12 | CC(C)(Cc1ccc(Cl)cc1)NCC(O)COc1ccccc1 (stereo not shown) [Compound 103, N-(2-Hydroxy-3-phenoxypropyl)-1,1-dimethyl-2-(4-chlorophenyl)ethylamine Hydrochloride] | < 10 µM
13 | CC(C)(Cc1cccc(Cl)c1)NCC(O)COc1ccccc1 (stereo not shown) [Compound 104, N-(2-Hydroxy-3-phenoxypropyl)-1,1-dimethyl-2-(3-chlorophenyl)ethylamine Hydrochloride] | < 10 µM
14 | COc1ccc(CC(C)(C)NC[C@@H](O)COc2cccc(Cl)c2C#N)cc1 [Compound 109, (R)—N-[2-Hydroxy-3-(3-chloro-2-cyanophenoxy)propyl]-1,1-dimethyl-2-(4-methoxyphenyl)-ethylamine Hydrochloride] | < 1 µM
15 | CCc1ccc(CC(C)(C)NCC(O)COc2ccccc2)cc1 (stereo not shown) [Compound 110, N-(2-Hydroxy-3-phenoxypropyl)-1,1-dimethyl-2-(4-ethylphenyl)ethylamine Hydrochloride] | < 10 µM
16 | CC(C)(Cc1ccc(OC(F)(F)F)cc1)NCC(O)COc1ccccc1 (stereo not shown) [Compound 111, N-(2-Hydroxy-3-phenoxypropyl)-1,1-dimethyl-2-(4-trifluoromethoxyphenyl)ethylamine Hydrochloride] | < 10 µM
17 | CC(C)c1ccc(CC(C)(C)NCC(O)COc2ccccc2)cc1 (stereo not shown) [Compound 112, N-(2-Hydroxy-3-phenoxypropyl)-1,1-dimethyl-2-(4-isopropylphenyl)ethylamine Hydrochloride] | < 1 µM
18 | CCC(C)(Cc1ccc(OC)cc1)NCC(O)COc1ccccc1 (stereo not shown) [Compound 113, N-(2-Hydroxy-3-phenoxypropyl)-1-ethyl-1-methyl-2-(4-methoxyphenyl)ethylamine Hydrochloride] | < 1 µM
19 | CCC(CC)(Cc1ccc(OC)cc1)NCC(O)COc1ccccc1 (stereo not shown) [Compound 114, N-(2-Hydroxy-3-phenoxypropyl)-1,1-diethyl-2-(4-methoxyphenyl)ethylamine Hydrochloride] | < 10 µM
20 | COc1ccc(CC(C)(C)NC[C@@H](O)COc2cccc(Cl)c2Cl)cc1 [Compound 115, (R)—N-[2-Hydroxy-3-(2,3-dichlorophenoxy)propyl]-1,1-dimethyl-2-(4-methoxyphenyl)ethylamine Hydrochloride] | < 1 µM
21 | COc1ccc(CC(C)(C)NC[C@H](O)COc2cccc(Cl)c2Cl)cc1 [Compound 116, (S)—N-[2-Hydroxy-3-(2,3-dichlorophenoxy)propyl]-1,1-dimethyl-2-(4-methoxyphenyl)ethyl amine Hydrochloride] | < 1 µM
22 | COc1ccc(CC(C)(C)NCC(O)COc2ccccc2)cc1C (stereo not shown) [Compound 117, N-(2-Hydroxy-3-phenoxypropyl)-1,1-dimethyl-2-(4-methoxy-3-methylphenyl)ethylamine Hydrochloride] | < 1 µM
23 | COc1ccc(CC(C)(C)NCC(O)COc2cccc(OC)c2C#N)cc1 (stereo not shown) [Compound 118, N-[2-Hydroxy-3-(2-cyano-3-methoxyphenoxy)propyl]-1,1-dimethyl-2-(4-methoxyphenyl)ethylamine Hydrochloride] | < 1 µM
24 | COc1ccc(CC(C)(C)NCC(O)COc2cccc(Cl)c2C#N)cc1 (stereo not shown) [Compound 119, N-[2-Hydroxy-3-(3-chloro-2-cyanophenoxy)propyl]-1,1-dimethyl-2-(4-methoxyphenyl)ethylamine Hydrochloride] | < 1 µM
25 | CC(C)(Cc1ccc2ccccc2c1)NCC(O)COc1ccccc1 (stereo not shown) [Compound 120, N-(2-Hydroxy-3-phenoxypropyl)-1,1-dimethyl-2-(2-naphthyl)ethylamine Hydrochloride] | < 1 µM
26 | Cc1ccc(CC(C)(C)NCC(O)COc2ccccc2)cc1C (stereo not shown) [Compound 121, N-(2-Hydroxy-3-phenoxy)propyl)-1,1-dimethyl-2-(3,4-dimethylphenyl)ethylamine Hydrochloride] | < 1 µM
27 | COc1ccc(CC(C)(C)NC[C@@H](O)COc2ccccc2C#N)cc1 [Compound 122, (R)—N-[2-Hydroxy-3-(2-cyanophenoxy)propyl]-1,1-dimethyl-2-(4-methoxyphenyl)ethylamine Hydrochloride] | < 1 µM
28 | COc1ccc(CC(C)(C)NCC(O)COCCCCCCc2ccccc2)cc1 (stereo not shown) [Compound 126, N-[2-hydroxy-3-(6-phenyl-hexanoxy)propyl]-1,1-dimethyl-2-(4-methoxyphenyl)ethylamine] | < 1 µM

Reference: patent US7202261B2, “Calcilytic compounds” (NPS Pharmaceuticals, Inc., priority 1996, dated 2007)
